Results taken from patent US6737383B1, “Herbicidal oxadiazolidines” (priority 1999, dated 2004).

Columns and labels:
blackgrass = assay: Test B pre/postemergence blackgrass; format: in vivo, Alopecurus myosuroides
In short: (§1)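 Response is a visual 0-to-10 score relative to untreated plants, where 0 means no effect and 10 means complete control, taken twelve to sixteen days after application. Treatments went onto soil at planting and onto foliage of 1- to 4-leaf plants, using a surfactant-containing non-phytotoxic solvent.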

bamyardgrass = assay: Test B flood test barnyardgrass; format: in vivo, Echinochloa crus-galli
In short: (§2)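 Each value is a visual injury score relative to controls, with 10 meaning complete control and 0 no effect. Evaluation took place twelve to sixteen days after the 2-leaf-stage plants were treated and kept in the greenhouse.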

crabgrass = assay: Test B pre/postemergence crabgrass; format: in vivo, Digitaria sanguinalis
In short: as §1

rice = assay: Test B flood test rice; format: in vivo, Oryza sativa
In short: as §2

surinam grass = assay: Test B pre/postemergence surinam grass; format: in vivo, Brachiaria decumbens
In short: as §1

giant foxtail = assay: Test B pre/postemergence giant foxtail; format: in vivo, Setaria faberii
In short: as §1

smallflower flatsedge = assay: Test B flood test smallflower flatsedge; format: in vivo, Cyperus difformis
In short: as §2

wild oat = assay: Test B pre/postemergence wild oat; format: in vivo, Avena fatua
In short: as §1

sugar beet = assay: Test B pre/postemergence sugar beet; format: in vivo, Beta vulgaris
In short: as §1

pigweed = assay: Test B pre/postemergence pigweed; format: in vivo, Amaranthus retroflexus
In short: as §1

purple nutsedge = assay: Test B pre/postemergence purple nutsedge; format: in vivo, Cyperus rotundus
In short: as §1

cocklebur = assay: Test B pre/postemergence cocklebur; format: in vivo, Xanthium strumarium
In short: as §1

duck salad = assay: Test B flood test duck salad; format: in vivo, Heteranthera limosa
In short: as §2

rape = assay: Test B pre/postemergence rape; format: in vivo, Brassica napus
In short: as §1

bedstraw = assay: Test B pre/postemergence bedstraw; format: in vivo, Galium aparine; details: Preemergence
In short: as §1

corn = assay: Test B pre/postemergence corn; format: in vivo, Zea mays
In short: as §1

morningglory = assay: Test B pre/postemergence morningglory; format: in vivo, Ipomoea hederacea
In short: as §1

velvetleaf = assay: Test B pre/postemergence velvetleaf; format: in vivo, Abutilon theophrasti
In short: as §1

soybean = assay: Test B pre/postemergence soybean; format: in vivo, Glycine max
In short: as §1

wheat = assay: Test B pre/postemergence wheat; format: in vivo, Triticum aestivum
In short: as §1

[1] = Postemergence, Rate 31 g/ha, visual rating, scale 0 to 10 (0 no effect, 10 complete control)
[2] = Postemergence, Rate 125 g/ha, scale 0 to 10, 0 is no effect, 10 is complete control
[3] = Postemergence, Rate 250 g/ha, scale 0 to 10, 0 is no effect, 10 is complete control
[4] = Preemergence, Rate 31 g/ha, visual rating, scale 0 to 10 (0 no effect, 10 complete control)
[5] = Preemergence, Rate 62 g/ha, scale 0 to 10 (0 no effect, 10 complete control)
[6] = Preemergence, Rate 125 g/ha, scale of 0 to 10 where 0 is no effect and 10 is complete control
[7] = Preemergence, Rate 250 g/ha, scale of 0 to 10 where 0 is no effect and 10 is complete control
[8] = Rate 62 g/ha, Postemergence, scale of 0 to 10 where 0 is no effect and 10 is complete control
[9] = Rate 31 g/ha, Pre-emergence section (flood test species), scale 0 to 10
[10] = Rate 62 g/ha, flood test species, Pre-emergence, visual evaluation after twelve to sixteen days
[11] = Rate 125 g/ha, under heading Pre-emergence, flood test species, visual evaluation after twelve to sixteen days
[12] = Rate 250 g/ha, Pre-emergence, flood-test species, scale 0 to 10, 0 is no effect, 10 is complete control

## CC(C)N(C(=O)n1oc(=O)n([C@@H]2C[C@H]2C)c1=O)c1ccc(F)cc1 (relative stereo) [Compound 392]
blackgrass; [1]
  Blackgrass plant response rating: 7
blackgrass; [2]
  Plant response rating, Blackgrass: 10
blackgrass; [3]
  Plant response rating, Blackgrass: 10
blackgrass; [4]
  Blackgrass plant response rating: 2
blackgrass; [5]
  Plant response rating, Blackgrass: 6
blackgrass; [6]
  Plant response rating, Blackgrass: 8
blackgrass; [7]
  Blackgrass plant response rating: 10
blackgrass; [8]
  Blackgrass plant response rating: 7
bamyardgrass; [9]
  Barnyardgrass plant response rating: 0
bamyardgrass; [10]
  Plant response rating, Barnyardgrass (0 to 10 scale, 0 is no effect, 10 is complete control): 0
bamyardgrass; [11]
  Barnyardgrass plant response rating (0 to 10 scale, 0 is no effect, 10 is complete control): 0
bamyardgrass; [12]
  Barnyardgrass plant response rating: 0
crabgrass; [1]
  Crabgrass plant response rating: 1
crabgrass; [2]
  Plant response rating, Crabgrass: 2
crabgrass; [3]
  Plant response rating, Crabgrass: 7
crabgrass; [4]
  Crabgrass plant response rating: 8
crabgrass; [5]
  Plant response rating, Crabgrass: 10
crabgrass; [6]
  Plant response rating, Crabgrass: 10
crabgrass; [7]
  Crabgrass plant response rating: 10
crabgrass; [8]
  Crabgrass plant response rating: 2
rice; [9]
  Rice plant response rating: 0
rice; [10]
  Plant response rating, Rice (0 to 10 scale, 0 is no effect, 10 is complete control): 0
rice; [11]
  Rice plant response rating (0 to 10 scale, 0 is no effect, 10 is complete control): 0
rice; [12]
  Rice plant response rating: 0
Surinam grass; [1]
  B. signalgrass plant response rating: 0
Surinam grass; [2]
  Plant response rating, B. signalgrass: 5
Surinam grass; [3]
  Plant response rating, B. signalgrass: 7
Surinam grass; [4]
  B. signalgrass plant response rating: 0
Surinam grass; [5]
  Plant response rating, B. signalgrass: 2
Surinam grass; [6]
  Plant response rating, B. signalgrass: 3
Surinam grass; [7]
  B. signalgrass plant response rating: 9
Surinam grass; [8]
  B. signalgrass plant response rating: 1
Giant foxtail; [1]
  Giant foxtail plant response rating: 7
Giant foxtail; [2]
  Plant response rating, Giant foxtail: 9
Giant foxtail; [3]
  Plant response rating, Giant foxtail: 9
Giant foxtail; [4]
  Giant foxtail plant response rating: 10
Giant foxtail; [5]
  Plant response rating, Giant foxtail: 10
Giant foxtail; [6]
  Plant response rating, Giant foxtail: 10
Giant foxtail; [7]
  Giant foxtail plant response rating: 10
Giant foxtail; [8]
  Giant foxtail plant response rating: 7
Smallflower flatsedge; [9]
  S. Flatsedge plant response rating: 0
Smallflower flatsedge; [10]
  Plant response rating, S. Flatsedge (0 to 10 scale, 0 is no effect, 10 is complete control): 0
Smallflower flatsedge; [11]
  S. Flatsedge plant response rating (0 to 10 scale, 0 is no effect, 10 is complete control): 0
Smallflower flatsedge; [12]
  S. Flatsedge plant response rating: 0
Wild oat; [1]
  Wild oats plant response rating: 0
Wild oat; [5]
  Plant response rating, Wild oats: 2
Wild oat; [6]
  Plant response rating, Wild oats: 9
Wild oat; [7]
  Wild oats plant response rating: 10
Wild oat; [8]
  Wild oats plant response rating: 0
Sugar beet; [1]
  Sugarbeets plant response rating: 0
Sugar beet; [3]
  Plant response rating, Sugarbeets: 0
Sugar beet; [5]
  Plant response rating, Sugarbeets: 0
Sugar beet; [6]
  Plant response rating, Sugarbeets: 3
Sugar beet; [7]
  Sugarbeets plant response rating: 7
Sugar beet; [8]
  Sugarbeets plant response rating: 0
pigweed; [1]
  Redroot pigweed plant response rating: 0
pigweed; [3]
  Plant response rating, Redroot pigweed: 6
pigweed; [5]
  Plant response rating, Redroot pigweed: 2
pigweed; [6]
  Plant response rating, Redroot pigweed: 7
pigweed; [7]
  Redroot pigweed plant response rating: 10
pigweed; [8]
  Redroot pigweed plant response rating: 0
Purple nutsedge; [1]
  Nutsedge plant response rating: 0
Purple nutsedge; [3]
  Plant response rating, Nutsedge: 0
Purple nutsedge; [5]
  Plant response rating, Nutsedge: 0
Purple nutsedge; [6]
  Plant response rating, Nutsedge: 0
Purple nutsedge; [7]
  Nutsedge plant response rating: 0
Purple nutsedge; [8]
  Nutsedge plant response rating: 0
cocklebur; [1]
  Cocklebur plant response rating: 0
cocklebur; [2]
  Plant response rating, Cocklebur: 2
cocklebur; [3]
  Plant response rating, Cocklebur: 2
cocklebur; [4]
  Cocklebur plant response rating: 0
cocklebur; [5]
  Plant response rating, Cocklebur: 0
cocklebur; [6]
  Plant response rating, Cocklebur: 0
cocklebur; [7]
  Cocklebur plant response rating: 0
cocklebur; [8]
  Cocklebur plant response rating: 0
Duck salad; [9]
  Ducksalad plant response rating: 0
Duck salad; [10]
  Plant response rating, Ducksalad (0 to 10 scale, 0 is no effect, 10 is complete control): 0
Duck salad; [11]
  Ducksalad plant response rating (0 to 10 scale, 0 is no effect, 10 is complete control): 0
Duck salad; [12]
  Ducksalad plant response rating: 0
rape; [1]
  Rape plant response rating: 0
rape; [3]
  Plant response rating, Rape: 0
rape; [5]
  Plant response rating, Rape: 0
rape; [6]
  Plant response rating, Rape: 0
rape; [7]
  Rape plant response rating: 5
rape; [8]
  Rape plant response rating: 0
bedstraw; Rate 31 g/ha, visual rating, scale 0 to 10 (0 no effect, 10 complete control)
  Bedstraw plant response rating: 0
bedstraw; Rate 125 g/ha, scale of 0 to 10 where 0 is no effect and 10 is complete control
  Plant response rating, Bedstraw: 8
bedstraw; Rate 250 g/ha, scale of 0 to 10 where 0 is no effect and 10 is complete control
  Bedstraw plant response rating: 10
corn; [1]
  Corn plant response rating: 0
corn; [2]
  Plant response rating, Corn: 0
corn; [3]
  Plant response rating, Corn: 0
corn; [4]
  Corn plant response rating: 0
corn; [5]
  Plant response rating, Corn: 0
corn; [6]
  Plant response rating, Corn: 3
corn; [7]
  Corn plant response rating: 9
corn; [8]
  Corn plant response rating: 0
morningglory; [1]
  Morningglory plant response rating: 3
morningglory; [3]
  Plant response rating, Morningglory: 7
morningglory; [5]
  Plant response rating, Morningglory: 0
morningglory; [6]
  Plant response rating, Morningglory: 0
morningglory; [7]
  Morningglory plant response rating: 0
morningglory; [8]
  Morningglory plant response rating: 5
velvetleaf; [1]
  Velvetleaf plant response rating: 0
velvetleaf; [3]
  Plant response rating, Velvetleaf: 2
velvetleaf; [5]
  Plant response rating, Velvetleaf: 0
velvetleaf; [6]
  Plant response rating, Velvetleaf: 3
velvetleaf; [7]
  Velvetleaf plant response rating: 5
velvetleaf; [8]
  Velvetleaf plant response rating: 0
soybean; [1]
  Soybean plant response rating: 1
soybean; [3]
  Plant response rating, Soybean: 2
soybean; [5]
  Plant response rating, Soybean: 0
soybean; [6]
  Plant response rating, Soybean: 0
soybean; [7]
  Soybean plant response rating: 0
soybean; [8]
  Soybean plant response rating: 1
wheat; [1]
  Wheat plant response rating: 0
wheat; [5]
  Plant response rating, Wheat: 0
wheat; [6]
  Plant response rating, Wheat: 3
wheat; [7]
  Wheat plant response rating: 8
wheat; [8]
  Wheat plant response rating: 0
